Source: patent US20260335332A1, “STABLE MONOHYDRATE FORM OF AVIBACTAM SODIUM SALT AND PREPARATION METHOD THEREFOR” (KYONGBO PHARM. CO., LTD., priority 2022, published 2026)
Read-outs that look alike come from different tables or passages of the source.

Experiments:
[1] = described in WO2011/042560 A1; cited from earlier work
[2] = Comparative accelerated stability test on purity/appearance changes (40° C., 75% relative humidity), HPLC; type: physicochemical; settings: 6 weeks
Description: The novel monohydrate form “a” of avibactam sodium salt prepared in Example 1, the monohydrate form “A” and the anhydrous form “B” were each packaged in glass vials and stored at 40° C. and 75% relative humidity for 6 weeks and the purity changes thereof were measured by HPLC at weekly intervals.

DSC pattern measurement = type: physicochemical; settings: 3 to 5 mg, 25 to 500° C. at 10 K/min
Description: The DSC pattern was measured while heating 3 to 5 mg of the novel monohydrate form “a” of avibactam sodium salt prepared in Example 1 from 25 to 500° C. at a rate of 10 K/min. As a result, the exothermic decomposition peak was confirmed at 227.3° C. […] It was confirmed therefrom that it had different physicochemical properties from the monohydrate form “A”, and the results are shown in FIG. 6.

[3] = Accelerated stability test on moisture content changes (40° C., 75% relative humidity), Karl-Fischer; type: physicochemical; settings: glass vial, 6 weeks, Karl-Fischer moisture meter
Description: The novel monohydrate form “a” of avibactam sodium salt prepared in Example 1 was packaged in a glass vial and stored at 40° C. and 75% relative humidity for 6 weeks and the change in moisture content thereof was measured by a Karl-Fischer moisture meter at weekly intervals for about 6 weeks.

[4] = described in WO2011/042560 A1; cited from earlier work; remark: listed apart in the source
TGA pattern measurement = type: physicochemical; settings: 3 to 5 mg, 30 to 500° C. at 10 K/min; theoretical water content of the monohydrate 5.90%
Description: The TGA pattern was measured while heating 3 to 5 mg of the novel monohydrate form “a” of avibactam sodium salt prepared in Example 1 from 30 to 500° C. at a rate of 10 K/min. […] In addition, decomposition exotherm accompanied by weight loss at 200 to 220° C. was confirmed and the results are shown in FIG. 5.

| Structure (SMILES) | stability during long storage and at higher temperature [1] | pharmaceutical stability compared with anhydrous form “B” ([2]; accelerated stability, vs anhydrous form “B”) | stability (purity changes) compared with monohydrate form “A” ([2]; glass vials, HPLC at weekly intervals, vs monohydrate form “A”) | exothermic decomposition peak (DSC) (DSC pattern measurement) [°C] | maintenance of monohydrate form (change in moisture content) [3] | exothermic decomposition peak (DSC) [4] [°C] | weight loss at 100 to 140° C. (TGA) (TGA pattern measurement) [%] |
| --- | --- | --- | --- | --- | --- | --- | --- |
| NC(=O)[C@@H]1CC[C@@H]2CN1C(=O)N2OS(=O)(=O)O [form “E”, (1R,2S,5R)-7-oxo-6-sulfooxy-1,6-diazabicyclo[3.2.1]octane-2-carboxamide sodium] | tends to lose water and hydrolyze during long storage and at higher temperature |  |  |  |  |  |  |
| NC(=O)[C@@H]1CC[C@@H]2CN1C(=O)N2OS(=O)(=O)O [form “a”, (1R,2S,5R)-7-oxo-6-sulfooxy-1,6-diazabicyclo[3.2.1]octane-2-carboxamide sodium] |  | pharmaceutically more stable than the form “B” | a more stable form than the monohydrate form “A” | 227.3 | maintained the monohydrate form thereof | 238.9 | 5.57 |
